Measured values reported in the NIST ThermoML archive (doi:10.1021/je0496140).

How the values were obtained:
[1] = 101.33 kPa, Liquid
[2] = xn = mol fraction of the nth substance listed; settings: 101.33 kPa, Liquid

CCCCCl [1-chlorobutane]
[1]
Settings | mass density [kg/m3] | viscosity [mPa·s]
288.15 K | 891.87 | 0.477
298.15 K | 880.18 | 0.429
303.15 K | 875.19 | 0.409
308.15 K | 869.64 | 0.39
313.15 K | 863.94 | 0.372
318.15 K | 858.31 | 0.354

CCCCCl [1-chlorobutane] + CC(C)CO
[2]
Settings | mass density [kg/m3] | viscosity [mPa·s]
288.15 K, x2 = 0.0369 | 888.52 | –
288.15 K, x2 = 0.0769 | 885.16 | –
288.15 K, x2 = 0.1003 | – | 0.511
288.15 K, x2 = 0.1526 | 878.94 | –
288.15 K, x2 = 0.1993 | – | 0.568
288.15 K, x2 = 0.2287 | 872.74 | –
288.15 K, x2 = 0.2853 | 868.15 | –
288.15 K, x2 = 0.2979 | – | 0.654
288.15 K, x2 = 0.3791 | 860.52 | –
288.15 K, x2 = 0.3954 | – | 0.784
288.15 K, x2 = 0.4421 | 855.33 | –
288.15 K, x2 = 0.496 | – | 0.948
288.15 K, x2 = 0.5564 | 845.76 | –
288.15 K, x2 = 0.5739 | 844.3 | –
288.15 K, x2 = 0.5936 | – | 1.198
288.15 K, x2 = 0.625 | 839.91 | –
288.15 K, x2 = 0.6843 | 834.73 | –
288.15 K, x2 = 0.6894 | – | 1.57
288.15 K, x2 = 0.7309 | 830.64 | –
288.15 K, x2 = 0.7517 | 828.8 | –
288.15 K, x2 = 0.7555 | 828.45 | –
288.15 K, x2 = 0.7567 | 828.35 | –
288.15 K, x2 = 0.7923 | – | 2.196
288.15 K, x2 = 0.849 | 819.9 | –
288.15 K, x2 = 0.8912 | – | 3.098
288.15 K, x2 = 0.9196 | 813.2 | –
288.15 K, x2 = 0.9806 | 807.26 | –
298.15 K, x2 = 0.1003 | – | 0.454
298.15 K, x2 = 0.1993 | – | 0.499
298.15 K, x2 = 0.2979 | – | 0.567
298.15 K, x2 = 0.3954 | – | 0.663
298.15 K, x2 = 0.496 | – | 0.787
298.15 K, x2 = 0.5936 | – | 0.97
298.15 K, x2 = 0.6894 | – | 1.23
298.15 K, x2 = 0.7923 | – | 1.669
298.15 K, x2 = 0.8912 | – | 2.284
308.15 K, x2 = 0.1003 | – | 0.408
308.15 K, x2 = 0.1006 | 861.12 | –
308.15 K, x2 = 0.1959 | 853.68 | –
308.15 K, x2 = 0.1993 | – | 0.445
308.15 K, x2 = 0.277 | 847.47 | –
308.15 K, x2 = 0.2979 | – | 0.497
308.15 K, x2 = 0.3894 | 838.94 | –
308.15 K, x2 = 0.3954 | – | 0.574
308.15 K, x2 = 0.4895 | 831.33 | –
308.15 K, x2 = 0.496 | – | 0.663
308.15 K, x2 = 0.5863 | 823.9 | –
308.15 K, x2 = 0.5936 | – | 0.801
308.15 K, x2 = 0.6894 | – | 0.986
308.15 K, x2 = 0.6914 | 815.7 | –
308.15 K, x2 = 0.7923 | – | 1.295
308.15 K, x2 = 0.7941 | 807.44 | –
308.15 K, x2 = 0.8912 | – | 1.724
308.15 K, x2 = 0.8989 | 798.78 | –
318.15 K, x2 = 0.0905 | 850.62 | –
318.15 K, x2 = 0.1003 | – | 0.369
318.15 K, x2 = 0.1869 | 843.28 | –
318.15 K, x2 = 0.1993 | – | 0.397
318.15 K, x2 = 0.2712 | 837.05 | –
318.15 K, x2 = 0.2979 | – | 0.44
318.15 K, x2 = 0.3772 | 829.29 | –
318.15 K, x2 = 0.3954 | – | 0.498
318.15 K, x2 = 0.4806 | 821.73 | –
318.15 K, x2 = 0.496 | – | 0.567
318.15 K, x2 = 0.5812 | 814.29 | –
318.15 K, x2 = 0.5936 | – | 0.682
318.15 K, x2 = 0.6819 | 806.85 | –
318.15 K, x2 = 0.6894 | – | 0.808
318.15 K, x2 = 0.7816 | 799.34 | –
318.15 K, x2 = 0.7923 | – | 1.025
318.15 K, x2 = 0.8896 | 791.03 | –
318.15 K, x2 = 0.8912 | – | 1.33

CCCCCl [1-chlorobutane] + CCC(C)O
[2]
Settings | mass density [kg/m3] | viscosity [mPa·s]
288.15 K, x2 = 0.05 | 887.1 | –
288.15 K, x2 = 0.0965 | – | 0.496
288.15 K, x2 = 0.1177 | 881.38 | –
288.15 K, x2 = 0.1435 | 879.24 | –
288.15 K, x2 = 0.1962 | 874.99 | –
288.15 K, x2 = 0.1973 | – | 0.542
288.15 K, x2 = 0.2227 | 872.88 | –
288.15 K, x2 = 0.2962 | – | 0.601
288.15 K, x2 = 0.34 | 863.63 | –
288.15 K, x2 = 0.3934 | – | 0.688
288.15 K, x2 = 0.4058 | 858.45 | –
288.15 K, x2 = 0.4104 | 858.09 | –
288.15 K, x2 = 0.4917 | – | 0.805
288.15 K, x2 = 0.4986 | 851.12 | –
288.15 K, x2 = 0.5241 | 849.12 | –
288.15 K, x2 = 0.5527 | 846.87 | –
288.15 K, x2 = 0.5923 | – | 0.995
288.15 K, x2 = 0.6114 | 842.23 | –
288.15 K, x2 = 0.6634 | 838.14 | –
288.15 K, x2 = 0.6919 | – | 1.286
288.15 K, x2 = 0.7388 | 832.24 | –
288.15 K, x2 = 0.7931 | – | 1.764
288.15 K, x2 = 0.7984 | 827.45 | –
288.15 K, x2 = 0.8286 | 824.99 | –
288.15 K, x2 = 0.884 | 820.5 | –
288.15 K, x2 = 0.8933 | – | 2.648
288.15 K, x2 = 0.9367 | 816.07 | –
298.15 K, x2 = 0.0965 | – | 0.444
298.15 K, x2 = 0.1973 | – | 0.478
298.15 K, x2 = 0.2962 | – | 0.524
298.15 K, x2 = 0.3934 | – | 0.587
298.15 K, x2 = 0.4917 | – | 0.675
298.15 K, x2 = 0.5923 | – | 0.811
298.15 K, x2 = 0.6919 | – | 1.011
298.15 K, x2 = 0.7931 | – | 1.334
298.15 K, x2 = 0.8933 | – | 1.901
308.15 K, x2 = 0.0965 | – | 0.399
308.15 K, x2 = 0.1007 | 860.49 | –
308.15 K, x2 = 0.1941 | 853.08 | –
308.15 K, x2 = 0.1973 | – | 0.426
308.15 K, x2 = 0.2775 | 846.72 | –
308.15 K, x2 = 0.2962 | – | 0.462
308.15 K, x2 = 0.3881 | 838.47 | –
308.15 K, x2 = 0.3934 | – | 0.51
308.15 K, x2 = 0.4876 | 831.15 | –
308.15 K, x2 = 0.4917 | – | 0.577
308.15 K, x2 = 0.5897 | 823.73 | –
308.15 K, x2 = 0.5923 | – | 0.676
308.15 K, x2 = 0.6919 | – | 0.818
308.15 K, x2 = 0.6927 | 816.37 | –
308.15 K, x2 = 0.7931 | – | 1.034
308.15 K, x2 = 0.795 | 808.99 | –
308.15 K, x2 = 0.8933 | – | 1.419
308.15 K, x2 = 0.8963 | 801.67 | –
318.15 K, x2 = 0.0864 | 850.35 | –
318.15 K, x2 = 0.0965 | – | 0.362
318.15 K, x2 = 0.1906 | 842.1 | –
318.15 K, x2 = 0.1973 | – | 0.382
318.15 K, x2 = 0.2732 | 835.88 | –
318.15 K, x2 = 0.2962 | – | 0.41
318.15 K, x2 = 0.382 | 828 | –
318.15 K, x2 = 0.3934 | – | 0.45
318.15 K, x2 = 0.4862 | 820.61 | –
318.15 K, x2 = 0.4917 | – | 0.498
318.15 K, x2 = 0.5852 | 813.65 | –
318.15 K, x2 = 0.5923 | – | 0.571
318.15 K, x2 = 0.6823 | 806.95 | –
318.15 K, x2 = 0.6919 | – | 0.676
318.15 K, x2 = 0.7865 | 799.78 | –
318.15 K, x2 = 0.7931 | – | 0.825
318.15 K, x2 = 0.8928 | 792.59 | –
318.15 K, x2 = 0.8933 | – | 1.072
